Activity and inhibition in vivo data for one molecule are collected here from ChEMBL document CHEMBL3769391, “Identification of a new cyathane diterpene that induces mitochondrial and autophagy-dependent apoptosis and shows a potent in vivo anti-colorectal cancer activity” (Eur J Med Chem, 2016).

The subject of data set [1] is HCT-116. In words: Induction of apoptosis in human HCT116 cells assessed as early apoptotic cells at 10 uM after 24 hrs by Annexin V-FITC/propidium iodide staining based flow cytometry (reference value: 1.06%). It counts as functional.
The subject of data set [2] is HCT-116. Description: Induction of apoptosis in human HCT116 cells assessed as caspase activation at 5 uM after 24 hrs by CaspACEFITC-VAD-FMK staining based flow cytometry (reference value: 7.72%). The class given is functional.
Data set [3] concerns HCT-116. Description: Induction of apoptosis in human HCT116 cells assessed as caspase activation at 5 uM after 36 hrs by CaspACEFITC-VAD-FMK staining based flow cytometry (reference value: 7.72%). The class given is functional.
Data set [4] has as its system HCT-116. In words: Induction of apoptosis in human HCT116 cells assessed as early apoptotic cells at 5 uM after 24 hrs by Annexin V-FITC/propidium iodide staining based flow cytometry in presence of NAC (reference value: 2.2%). It counts as functional.
Data set [5] has as its system HCT-116. Description: Induction of apoptosis in human HCT116 cells assessed as depolarization of mitochondrial inner transmembrane potential after 24 hrs by TMRE staining based flow cytometry. The class given is functional, cell-based.
In data set [6] the target is c-Jun N-terminal kinase, JNK (Homo sapiens) (UniProt P45983+P53779+P45984). Description: Induction of JNK phosphorylation in human HCT116 cells at 5 uM after 4 hrs by Western blot analysis. The note with it: HCT-116. The class given is cell-based.
For data set [7], the system named is HCT-116. Description: Induction of apoptosis in human HCT116 cells assessed as increase in BimEL expression at 5 uM after 6 to 24 hrs by Western blot analysis. The class given is functional, cell-based.
Data set [8] relates to HCT-116. Description: Induction of apoptosis in human HCT116 cells assessed as changes in p53 expression at 5 uM after 6 to 24 hrs by Western blot analysis. The class given is functional, cell-based.
Data set [9] has as its system HCT-116. In words: Induction of apoptosis in Bax deficient human HCT116 cells assessed as late apoptotic cells at 10 uM after 24 hrs by Annexin V-FITC/propidium iodide staining based flow cytometry (reference value: 1.5%). It counts as functional.
The test system of data set [10] is HCT-116. Description: Induction of autophagy in human HCT116 cells assessed as increase in LC3-2 level at 5 uM by Western blot analysis. It counts as functional, cell-based.
The subject of data set [11] is HCT-116. Description: Induction of chloroquine-induced autophagic flux in human HCT116 cells assessed as increase in LC3-2 level at 5 uM by Western blot analysis. It counts as functional, cell-based.
The test system of data set [12] is HCT-116. Description: Induction of apoptosis in ATG5 scramble human HCT116 cells assessed as early apoptotic cells at 5 uM after 24 hrs by Annexin V-FITC/propidium iodide staining based flow cytometry (reference value: 1.99%). It counts as functional.
Data set [13] deals with HCT-116. Description: Induction of apoptosis in ATG5 knockdown human HCT116 cells assessed as early apoptotic cells at 5 uM after 24 hrs by Annexin V-FITC/propidium iodide staining based flow cytometry (reference value: 1.13%). It counts as functional.
The nature of data set [14]: Antitumor activity against Bax deficient human HCT116 cells xenografted in immune deficient nude BALB/c mouse assessed as tumor growth inhibition at 10 mg/kg, ip administered every other day for 2 weeks measured after 2 weeks post last dose relative to control. The class given is functional. The note with it: HCT-116, ip, 336 h, read-out: TGI.
The subject of data set [15] is Mus musculus. Description: Toxicity in immune deficient nude BALB/c mouse xenografted with Bax deficient human HCT116 cells assessed as discomfort behavioral changes at 5 and 10 mg/kg, ip administered every other day for 2 weeks measured during compound dosing. It counts as organism-based, HCT-116. As to conditions: in vivo, 336 h.
For data set [16], the system named is Mus musculus. Description: Hepatotoxicity in immune deficient nude BALB/c mouse xenografted with human HCT116 cells assessed as changes in alanine transaminase level in serum at 5 and 10 mg/kg, ip administered every other day for 2 weeks measured during compound dosing. The class given is toxicity, organism-based, HCT-116. As to conditions: in vivo, 336 h.

Structures are written as SMILES. Active and inactive are the calls of the source. The calls are words filed in the database; no cut-off is given here.

`CO[C@@H]1C(C=O)=CC[C@@H]2C3=C(C(C)C)CC[C@]3(C)CC[C@@]2(C)[C@H]1O`: the Activity was 59.5% in the data set on HCT-116 [1]; 70.08% with HCT-116 [2]; 93.96% with HCT-116 [3]; 1.35% in the data set with HCT-116 [4]; “Dose-dependent effect” in the data set on HCT-116 [5]; 17.64% in the data set with HCT-116 [9]. In addition, the Activity in the data set on HCT-116 [12] was 15.2%; with HCT-116 [13], 2.36%; in the data set on Mus musculus [15], “Non-toxic”; in the data set with Mus musculus [16] it was “Non-toxic”. In addition, the result (in [6]; in the data set with HCT-116 [7]; in the data set on HCT-116 [10]; in the data set on HCT-116 [11]) was Active. The outcome in the data set with HCT-116 [8] was inactive. For the same molecule, the inhibition in vivo at 10 mg/kg in data set [14] was 60.1%.
